# Laboratory results: US5164388A, “Heterocyclic peptide renin inhibitors” (Abbott Laboratories, priority 1991, dated 1992)
# Key:
# [1] = biological target: T1, human renal renin (Homo sapiens, UniProt P00797); assay: Inhibition of human renal renin in vitro (angiotensin I formed, radioimmunoassay); format: biochemical; settings: human angiotensinogen substrate, 37 degrees C., pH 6.0
# T1 construct: human renal renin, free from acid proteolytic activity; from tissue
# T1 sequence (P00797 67-406): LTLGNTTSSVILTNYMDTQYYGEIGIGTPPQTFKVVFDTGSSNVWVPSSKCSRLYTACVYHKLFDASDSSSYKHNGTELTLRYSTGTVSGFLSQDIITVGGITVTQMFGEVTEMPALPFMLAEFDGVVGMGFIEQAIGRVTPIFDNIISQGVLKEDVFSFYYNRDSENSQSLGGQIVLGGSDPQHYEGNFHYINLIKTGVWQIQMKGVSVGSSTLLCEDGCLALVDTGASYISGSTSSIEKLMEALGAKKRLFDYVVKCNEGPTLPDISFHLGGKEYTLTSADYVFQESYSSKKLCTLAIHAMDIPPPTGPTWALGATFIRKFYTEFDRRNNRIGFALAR
# Description: The novel compounds of the present invention are also useful for treating congestive heart failure. […] At the end of the incubation, the amount of angiotensin I formed is measured by radioimmunoassay and the molar concentration required to cause 50% inhibition, expressed as the IC50, is calculated.
# [2] = Blood pressure in salt depleted monkeys following oral dosing; format: in vivo, cynomolgous monkeys; settings: oral 3 mg/kg
# Description: (§1) The ability of the compounds of the invention to decrease blood pressure and plasma renin activity in vivo can be determined using the following method.
# (§2) Male cynomolgous monkeys housed under constant temperature and lighting conditions and weighing 3-5 kg were instrumented with chronic indwelling arterial and venous catheters. Following pretreatment by salt-depletion, the monkeys were dosed by nasogastric tube with 3 mg/kg of the compound of Example 152.
# [3] = test system: Plasma Renin Activity; assay: Plasma renin activity in salt depleted monkeys following oral dosing; format: in vivo, cynomolgous monkeys; settings: oral 3 mg/kg
# Description: as §1, §2
# [4] = Mean of three monkeys, time 0 min
# [5] = Mean of three monkeys, time 5 min
# [6] = Mean of three monkeys, time 15 min
# [7] = Mean of three monkeys, time 30 min
# [8] = Mean of three monkeys, time 60 min
# [9] = Mean of three monkeys, time 90 min
# [10] = Mean of three monkeys, time 120 min
# [11] = Mean of three monkeys, time 180 min
# [12] = Mean of three monkeys, time 360 min
smiles,measurement,setting,value
"CC1COC(C(O)C(CC2CCCCC2)NC(=O)C(Cc2cscn2)N2CCCC(Cc3ccccc3)(NS(=O)(=O)N3CCN(C)CC3)C2=O)C1 [Example 152, (2S1-((3S)-((N-methylpiperazinsulfonyl)amino-3-phenylmethyl-2-oxo-1-piperidinyl)-3-(4-thiazolyl)propionic acid amide of (2S,4S,1'R,2'S)-2-(2'-amino-3'-cyclohexyl-1'-hydroxypropyl)-4-methyltetrahydrofuran]",IC50,[1],0.55 nM
same,Blood Pressure (BP),[2]; [4],86 mmHg
same,Blood Pressure (BP),[2]; [5],85 mmHg
same,Blood Pressure (BP),[2]; [6],79 mmHg
same,Blood Pressure (BP),[2]; [7],74 mmHg
same,Blood Pressure (BP),[2]; [8],73 mmHg
same,Blood Pressure (BP),[2]; [9],76 mmHg
same,Blood Pressure (BP),[2]; [10],77 mmHg
same,Blood Pressure (BP),[2]; [11],79 mmHg
same,Blood Pressure (BP),[2]; [12],83 mmHg
same,Blood Pressure (BP),"[2]; Monkey 1, time 0 min",75 mmHg
same,Blood Pressure (BP),"[2]; Monkey 1, time 5 min",75 mmHg
same,Blood Pressure (BP),"[2]; Monkey 1, time 15 min",75 mmHg
same,Blood Pressure (BP),"[2]; Monkey 1, time 30 min",71 mmHg
same,Blood Pressure (BP),"[2]; Monkey 1, time 60 min",70 mmHg
same,Blood Pressure (BP),"[2]; Monkey 1, time 90 min",74 mmHg
same,Blood Pressure (BP),"[2]; Monkey 1, time 120 min",68 mmHg
same,Blood Pressure (BP),"[2]; Monkey 1, time 180 min",72 mmHg
same,Blood Pressure (BP),"[2]; Monkey 1, time 360 min",72 mmHg
same,Blood Pressure (BP),"[2]; Monkey 2, time 0 min",105 mmHg
same,Blood Pressure (BP),"[2]; Monkey 2, time 5 min",99 mmHg
same,Blood Pressure (BP),"[2]; Monkey 2, time 15 min",92 mmHg
same,Blood Pressure (BP),"[2]; Monkey 2, time 30 min",82 mmHg
same,Blood Pressure (BP),"[2]; Monkey 2, time 60 min",85 mmHg
same,Blood Pressure (BP),"[2]; Monkey 2, time 90 min",85 mmHg
same,Blood Pressure (BP),"[2]; Monkey 2, time 120 min",80 mmHg
same,Blood Pressure (BP),"[2]; Monkey 2, time 180 min",92 mmHg
same,Blood Pressure (BP),"[2]; Monkey 2, time 360 min",93 mmHg
same,Blood Pressure (BP),"[2]; Monkey 3, time 0 min",77 mmHg
same,Blood Pressure (BP),"[2]; Monkey 3, time 5 min",82 mmHg
same,Blood Pressure (BP),"[2]; Monkey 3, time 15 min",69 mmHg
same,Blood Pressure (BP),"[2]; Monkey 3, time 30 min",69 mmHg
same,Blood Pressure (BP),"[2]; Monkey 3, time 60 min",65 mmHg
same,Blood Pressure (BP),"[2]; Monkey 3, time 90 min",70 mmHg
same,Blood Pressure (BP),"[2]; Monkey 3, time 120 min",82 mmHg
same,Blood Pressure (BP),"[2]; Monkey 3, time 180 min",72 mmHg
same,Blood Pressure (BP),"[2]; Monkey 3, time 360 min",84 mmHg
same,Plasma Renin Activity (PRA),[3]; [4],21.7 ng/mL/h
same,Plasma Renin Activity (PRA),[3]; [5],0.8 ng/mL/h
same,Plasma Renin Activity (PRA),[3]; [6],0.2 ng/mL/h
same,Plasma Renin Activity (PRA),[3]; [7],0.0 ng/mL/h
same,Plasma Renin Activity (PRA),[3]; [8],0.0 ng/mL/h
same,Plasma Renin Activity (PRA),[3]; [9],0.0 ng/mL/h
same,Plasma Renin Activity (PRA),[3]; [10],0.1 ng/mL/h
same,Plasma Renin Activity (PRA),[3]; [11],0.1 ng/mL/h
same,Plasma Renin Activity (PRA),[3]; [12],0.5 ng/mL/h
same,Plasma Renin Activity (PRA),"[3]; Monkey 1, time 0 min",12.6 ng/mL/h
same,Plasma Renin Activity (PRA),"[3]; Monkey 1, time 5 min",2.2 ng/mL/h
same,Plasma Renin Activity (PRA),"[3]; Monkey 1, time 15 min",0.44 ng/mL/h
same,Plasma Renin Activity (PRA),"[3]; Monkey 1, time 30 min",0.0 ng/mL/h
same,Plasma Renin Activity (PRA),"[3]; Monkey 1, time 60 min",0.0 ng/mL/h
same,Plasma Renin Activity (PRA),"[3]; Monkey 1, time 90 min",0.1 ng/mL/h
same,Plasma Renin Activity (PRA),"[3]; Monkey 1, time 120 min",0.0 ng/mL/h
same,Plasma Renin Activity (PRA),"[3]; Monkey 1, time 180 min",0.1 ng/mL/h
same,Plasma Renin Activity (PRA),"[3]; Monkey 1, time 360 min",0.2 ng/mL/h
same,Plasma Renin Activity (PRA),"[3]; Monkey 2, time 0 min",34.2 ng/mL/h
same,Plasma Renin Activity (PRA),"[3]; Monkey 2, time 5 min",0.1 ng/mL/h
same,Plasma Renin Activity (PRA),"[3]; Monkey 2, time 15 min",0.0 ng/mL/h
same,Plasma Renin Activity (PRA),"[3]; Monkey 2, time 30 min",0.0 ng/mL/h
same,Plasma Renin Activity (PRA),"[3]; Monkey 2, time 60 min",0.0 ng/mL/h
same,Plasma Renin Activity (PRA),"[3]; Monkey 2, time 90 min",0.0 ng/mL/h
same,Plasma Renin Activity (PRA),"[3]; Monkey 2, time 120 min",0.3 ng/mL/h
same,Plasma Renin Activity (PRA),"[3]; Monkey 2, time 180 min",0.2 ng/mL/h
same,Plasma Renin Activity (PRA),"[3]; Monkey 2, time 360 min",0.7 ng/mL/h
same,Plasma Renin Activity (PRA),"[3]; Monkey 3, time 0 min",18.4 ng/mL/h
same,Plasma Renin Activity (PRA),"[3]; Monkey 3, time 5 min",0.1 ng/mL/h
same,Plasma Renin Activity (PRA),"[3]; Monkey 3, time 15 min",0.2 ng/mL/h
same,Plasma Renin Activity (PRA),"[3]; Monkey 3, time 30 min",0.0 ng/mL/h
same,Plasma Renin Activity (PRA),"[3]; Monkey 3, time 60 min",0.1 ng/mL/h
same,Plasma Renin Activity (PRA),"[3]; Monkey 3, time 90 min",0.0 ng/mL/h
same,Plasma Renin Activity (PRA),"[3]; Monkey 3, time 120 min",0.0 ng/mL/h
same,Plasma Renin Activity (PRA),"[3]; Monkey 3, time 180 min",0.1 ng/mL/h
same,Plasma Renin Activity (PRA),"[3]; Monkey 3, time 360 min",0.7 ng/mL/h
